Earlier results in patent US20230398127A1, “USE OF COMBINED ORAL CONTRACEPTIVES CONTAINING NOMEGESTROL ACETATE AND ESTRADIOL” (THERAMEX HQ UK LIMITED, priority 2020, published 2023).

Target: T1, progesterone receptor (Homo sapiens, UniProt P06401)
T1 sequence (P06401 1-933): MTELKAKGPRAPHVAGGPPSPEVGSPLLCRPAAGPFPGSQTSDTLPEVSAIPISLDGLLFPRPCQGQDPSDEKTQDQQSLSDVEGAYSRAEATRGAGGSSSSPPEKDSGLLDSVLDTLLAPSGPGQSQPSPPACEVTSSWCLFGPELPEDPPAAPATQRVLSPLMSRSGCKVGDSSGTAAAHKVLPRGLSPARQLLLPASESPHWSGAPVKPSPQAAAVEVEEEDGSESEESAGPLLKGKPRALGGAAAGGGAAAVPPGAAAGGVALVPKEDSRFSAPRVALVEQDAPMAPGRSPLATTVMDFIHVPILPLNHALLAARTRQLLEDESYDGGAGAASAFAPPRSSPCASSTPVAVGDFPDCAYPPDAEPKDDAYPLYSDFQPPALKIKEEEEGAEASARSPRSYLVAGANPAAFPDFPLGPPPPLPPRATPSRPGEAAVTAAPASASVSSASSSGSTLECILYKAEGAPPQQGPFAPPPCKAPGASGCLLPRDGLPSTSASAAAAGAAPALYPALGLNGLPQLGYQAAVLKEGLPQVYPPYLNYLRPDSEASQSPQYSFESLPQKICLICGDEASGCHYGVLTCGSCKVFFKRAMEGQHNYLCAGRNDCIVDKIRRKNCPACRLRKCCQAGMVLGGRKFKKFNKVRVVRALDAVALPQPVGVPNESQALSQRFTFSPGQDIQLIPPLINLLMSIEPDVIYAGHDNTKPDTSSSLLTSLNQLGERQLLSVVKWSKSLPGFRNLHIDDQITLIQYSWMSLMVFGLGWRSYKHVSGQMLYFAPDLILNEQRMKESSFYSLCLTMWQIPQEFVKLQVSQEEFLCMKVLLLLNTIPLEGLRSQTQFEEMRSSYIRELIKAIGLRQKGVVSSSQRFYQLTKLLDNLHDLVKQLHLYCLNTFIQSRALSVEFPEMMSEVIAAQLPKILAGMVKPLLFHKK

CC(=O)O[C@]1(C(C)=O)CC[C@H]2[C@@H]3C=C(C)C4=CC(=O)CC[C@@H]4[C@H]3CC[C@@]21C [nomegestrol acetate, 17α-acetoxy-6-methyl-19-norpregna-4,6-diene-3,20-dione]
Affinity for the progesterone receptor: strong
